Laboratory results as given in ChEMBL document CHEMBL4507317, “Data for DCP probe BAY-899” (2021).

Experiments:
[1] = molecular target: Dual specificity mitogen-activated protein kinase kinase 6 (Homo sapiens) (UniProt P52564); conditions: Compound concentration 1000.0 nM
[2] = molecular target: Leucine-rich repeat serine/threonine-protein kinase 2 (Homo sapiens) (UniProt Q5S007); conditions: Compound concentration 1000.0 nM
[3] = test system: Mast/stem cell growth factor receptor Kit (Homo sapiens), P10721 [L576P]; conditions: Compound concentration 1000.0 nM
[4] = molecular target: Serine/threonine-protein kinase PAK 1 (Homo sapiens) (UniProt Q13153); conditions: Compound concentration 1000.0 nM
[5] = molecular target: 5-hydroxytryptamine receptor 2C (Homo sapiens) (UniProt P28335); conditions: Compound concentration 10.0 uM
[6] = test system: Tyrosine-protein kinase ABL1 (Homo sapiens), P00519 [H396P]; conditions: Compound concentration 1000.0 nM
[7] = molecular target: Tyrosine-protein kinase SYK (Homo sapiens) (UniProt P43405); conditions: Compound concentration 1000.0 nM
[8] = molecular target: Serine/threonine-protein kinase BRSK2 (Homo sapiens) (UniProt Q8IWQ3); conditions: Compound concentration 1000.0 nM
[9] = molecular target: Dual specificity protein kinase CLK2 (Homo sapiens) (UniProt P49760); conditions: Compound concentration 1000.0 nM
[10] = molecular target: Serine/threonine-protein kinase ULK2 (Homo sapiens) (UniProt Q8IYT8); conditions: Compound concentration 1000.0 nM
[11] = molecular target: Serine/threonine-protein kinase PLK2 (Homo sapiens) (UniProt Q9NYY3); conditions: Compound concentration 1000.0 nM
[12] = molecular target: Dual specificity testis-specific protein kinase 1 (Homo sapiens) (UniProt Q15569); conditions: Compound concentration 1000.0 nM
[13] = molecular target: Inhibitor of nuclear factor kappa-B kinase subunit beta (Homo sapiens) (UniProt O14920); conditions: Compound concentration 1000.0 nM
[14] = molecular target: T1, Alpha-2A adrenergic receptor (Homo sapiens) (UniProt P08913); conditions: Compound concentration 10.0 uM
T1 sequence (whole entry): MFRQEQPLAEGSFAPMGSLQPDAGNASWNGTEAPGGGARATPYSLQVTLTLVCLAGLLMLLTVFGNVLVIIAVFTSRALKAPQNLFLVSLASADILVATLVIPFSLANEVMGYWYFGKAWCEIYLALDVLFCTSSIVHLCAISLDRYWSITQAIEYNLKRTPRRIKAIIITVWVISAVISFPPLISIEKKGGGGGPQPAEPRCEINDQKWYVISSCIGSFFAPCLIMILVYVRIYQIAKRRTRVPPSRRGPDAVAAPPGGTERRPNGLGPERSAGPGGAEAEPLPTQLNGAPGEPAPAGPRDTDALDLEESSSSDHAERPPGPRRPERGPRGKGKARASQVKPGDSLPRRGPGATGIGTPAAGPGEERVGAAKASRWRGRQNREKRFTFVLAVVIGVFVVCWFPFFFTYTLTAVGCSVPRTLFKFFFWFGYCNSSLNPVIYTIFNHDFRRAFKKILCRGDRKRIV

[15] = molecular target: Macrophage colony-stimulating factor 1 receptor (Homo sapiens) (UniProt P07333); conditions: Compound concentration 1000.0 nM
[16] = molecular target: Serine/threonine-protein kinase D3 (Homo sapiens) (UniProt O94806); conditions: Compound concentration 1000.0 nM
[17] = test system: Mast/stem cell growth factor receptor Kit (Homo sapiens), P10721 [V559D,T670I]; conditions: Compound concentration 1000.0 nM
[18] = molecular target: Tyrosine-protein kinase Fer (Homo sapiens) (UniProt P16591); conditions: Compound concentration 1000.0 nM
[19] = molecular target: Ribosomal protein S6 kinase alpha-4 (Homo sapiens) (UniProt O75676); conditions: Compound concentration 1000.0 nM
[20] = molecular target: Serine/threonine-protein kinase RIO2 (Homo sapiens) (UniProt Q9BVS4); conditions: Compound concentration 1000.0 nM
[21] = molecular target: Tyrosine-protein kinase JAK3 (Homo sapiens) (UniProt P52333); conditions: Compound concentration 1000.0 nM
[22] = test system: Phosphatidylinositol 4,5-bisphosphate 3-kinase catalytic subunit alpha isoform (Homo sapiens), P42336 [E542K]; conditions: Compound concentration 1000.0 nM
[23] = molecular target: Activin receptor type-1-like (Homo sapiens) (UniProt P37023); conditions: Compound concentration 1000.0 nM
[24] = molecular target: Casein kinase I isoform gamma-2 (Homo sapiens) (UniProt P78368); conditions: Compound concentration 1000.0 nM
[25] = molecular target: Glycogen synthase kinase-3 beta (Homo sapiens) (UniProt P49841); conditions: Compound concentration 1000.0 nM
[26] = molecular target: NUAK family SNF1-like kinase 1 (Homo sapiens) (UniProt O60285); conditions: Compound concentration 1000.0 nM
[27] = molecular target: Protein kinase C theta type (Homo sapiens) (UniProt Q04759); conditions: Compound concentration 1000.0 nM
[28] = molecular target: Serine/threonine-protein kinase Nek3 (Homo sapiens) (UniProt P51956); conditions: Compound concentration 1000.0 nM
[29] = molecular target: Protein kinase C eta type (Homo sapiens) (UniProt P24723); conditions: Compound concentration 1000.0 nM
[30] = molecular target: Cyclin-dependent kinase 8 (Homo sapiens) (UniProt P49336); conditions: Compound concentration 1000.0 nM
[31] = molecular target: Muscle, skeletal receptor tyrosine-protein kinase (Homo sapiens) (UniProt O15146); conditions: Compound concentration 1000.0 nM
[32] = test system: Mast/stem cell growth factor receptor Kit (Homo sapiens), P10721 [V559D,V654A]; conditions: Compound concentration 1000.0 nM
[33] = molecular target: Cyclin-dependent kinase-like 1 (Homo sapiens) (UniProt Q00532); conditions: Compound concentration 1000.0 nM
[34] = molecular target: Alpha-1D adrenergic receptor (Homo sapiens) (UniProt P25100); conditions: Compound concentration 10.0 uM
[35] = molecular target: Serine/threonine-protein kinase WNK3 (Homo sapiens) (UniProt Q9BYP7); conditions: Compound concentration 1000.0 nM
[36] = molecular target: Serine/threonine-protein kinase PknB (Mycobacterium tuberculosis) (UniProt P9WI81); conditions: Compound concentration 1000.0 nM
[37] = molecular target: Serine/threonine-protein kinase Nek4 (Homo sapiens) (UniProt P51957); conditions: Compound concentration 1000.0 nM
[38] = molecular target: Serine/threonine-protein kinase SIK1 (Homo sapiens) (UniProt P57059); conditions: Compound concentration 1000.0 nM
[39] = molecular target: Cyclin-dependent kinase 11B (Homo sapiens) (UniProt P21127); conditions: Compound concentration 1000.0 nM

Cyclin-dependent kinase 8 (Homo sapiens), sequence (P49336 whole entry): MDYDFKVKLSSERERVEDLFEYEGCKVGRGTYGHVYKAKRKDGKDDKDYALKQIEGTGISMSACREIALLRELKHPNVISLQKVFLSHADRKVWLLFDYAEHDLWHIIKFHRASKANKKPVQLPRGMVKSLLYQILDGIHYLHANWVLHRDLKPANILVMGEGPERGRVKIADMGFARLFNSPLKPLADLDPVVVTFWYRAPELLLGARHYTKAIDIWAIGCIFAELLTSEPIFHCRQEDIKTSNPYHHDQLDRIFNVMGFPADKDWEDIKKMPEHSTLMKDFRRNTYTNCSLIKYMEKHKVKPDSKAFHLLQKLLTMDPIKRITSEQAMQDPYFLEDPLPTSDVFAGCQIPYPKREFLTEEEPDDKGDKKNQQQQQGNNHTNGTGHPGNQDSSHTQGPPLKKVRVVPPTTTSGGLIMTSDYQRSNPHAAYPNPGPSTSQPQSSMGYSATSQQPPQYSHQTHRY
Cyclin-dependent kinase-like 1 (Homo sapiens), sequence (Q00532 whole entry): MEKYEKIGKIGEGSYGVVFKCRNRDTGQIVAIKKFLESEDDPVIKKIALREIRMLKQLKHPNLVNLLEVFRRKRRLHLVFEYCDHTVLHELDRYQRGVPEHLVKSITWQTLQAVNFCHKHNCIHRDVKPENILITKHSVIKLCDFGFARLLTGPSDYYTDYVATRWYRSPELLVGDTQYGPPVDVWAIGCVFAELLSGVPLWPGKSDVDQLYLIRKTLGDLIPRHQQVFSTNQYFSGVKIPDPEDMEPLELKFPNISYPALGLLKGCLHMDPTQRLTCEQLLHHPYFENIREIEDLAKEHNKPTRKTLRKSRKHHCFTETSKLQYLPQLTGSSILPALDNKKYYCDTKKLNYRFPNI
Protein kinase C theta type (Homo sapiens), sequence (Q04759 whole entry, looked up): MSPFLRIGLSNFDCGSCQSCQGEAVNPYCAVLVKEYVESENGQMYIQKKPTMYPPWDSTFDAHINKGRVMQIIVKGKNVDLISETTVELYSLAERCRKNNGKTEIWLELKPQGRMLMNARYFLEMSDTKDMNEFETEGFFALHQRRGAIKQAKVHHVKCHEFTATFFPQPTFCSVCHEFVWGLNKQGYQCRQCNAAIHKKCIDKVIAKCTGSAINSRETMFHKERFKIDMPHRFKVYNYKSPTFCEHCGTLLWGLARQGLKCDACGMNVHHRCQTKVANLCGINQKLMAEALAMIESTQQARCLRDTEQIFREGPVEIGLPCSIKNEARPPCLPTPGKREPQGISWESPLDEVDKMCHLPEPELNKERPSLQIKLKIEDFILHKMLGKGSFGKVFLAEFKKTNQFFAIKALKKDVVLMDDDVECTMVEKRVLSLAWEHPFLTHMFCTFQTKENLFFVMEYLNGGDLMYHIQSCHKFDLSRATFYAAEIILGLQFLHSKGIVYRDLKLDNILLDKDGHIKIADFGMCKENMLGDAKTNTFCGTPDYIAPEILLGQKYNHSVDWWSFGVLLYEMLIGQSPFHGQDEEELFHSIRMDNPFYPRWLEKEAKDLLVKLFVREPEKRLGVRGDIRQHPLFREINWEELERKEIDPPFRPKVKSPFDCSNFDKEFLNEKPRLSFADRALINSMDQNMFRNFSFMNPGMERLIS
Serine/threonine-protein kinase PAK 1 (Homo sapiens), sequence (Q13153 whole entry): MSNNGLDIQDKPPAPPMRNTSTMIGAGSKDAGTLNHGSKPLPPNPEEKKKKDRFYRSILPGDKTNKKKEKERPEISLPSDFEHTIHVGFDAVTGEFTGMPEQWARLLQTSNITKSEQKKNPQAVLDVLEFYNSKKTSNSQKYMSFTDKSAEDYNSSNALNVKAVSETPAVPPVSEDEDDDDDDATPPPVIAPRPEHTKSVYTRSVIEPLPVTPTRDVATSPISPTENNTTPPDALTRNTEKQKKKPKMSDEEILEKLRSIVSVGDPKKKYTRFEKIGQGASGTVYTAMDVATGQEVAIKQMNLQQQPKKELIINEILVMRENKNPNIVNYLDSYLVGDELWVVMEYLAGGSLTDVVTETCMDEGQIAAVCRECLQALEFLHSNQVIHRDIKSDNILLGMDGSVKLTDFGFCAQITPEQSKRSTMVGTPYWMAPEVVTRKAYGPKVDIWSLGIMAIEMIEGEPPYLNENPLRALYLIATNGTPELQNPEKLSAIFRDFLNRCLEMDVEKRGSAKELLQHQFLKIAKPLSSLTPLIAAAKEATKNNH
Muscle, skeletal receptor tyrosine-protein kinase (Homo sapiens), sequence (O15146 whole entry): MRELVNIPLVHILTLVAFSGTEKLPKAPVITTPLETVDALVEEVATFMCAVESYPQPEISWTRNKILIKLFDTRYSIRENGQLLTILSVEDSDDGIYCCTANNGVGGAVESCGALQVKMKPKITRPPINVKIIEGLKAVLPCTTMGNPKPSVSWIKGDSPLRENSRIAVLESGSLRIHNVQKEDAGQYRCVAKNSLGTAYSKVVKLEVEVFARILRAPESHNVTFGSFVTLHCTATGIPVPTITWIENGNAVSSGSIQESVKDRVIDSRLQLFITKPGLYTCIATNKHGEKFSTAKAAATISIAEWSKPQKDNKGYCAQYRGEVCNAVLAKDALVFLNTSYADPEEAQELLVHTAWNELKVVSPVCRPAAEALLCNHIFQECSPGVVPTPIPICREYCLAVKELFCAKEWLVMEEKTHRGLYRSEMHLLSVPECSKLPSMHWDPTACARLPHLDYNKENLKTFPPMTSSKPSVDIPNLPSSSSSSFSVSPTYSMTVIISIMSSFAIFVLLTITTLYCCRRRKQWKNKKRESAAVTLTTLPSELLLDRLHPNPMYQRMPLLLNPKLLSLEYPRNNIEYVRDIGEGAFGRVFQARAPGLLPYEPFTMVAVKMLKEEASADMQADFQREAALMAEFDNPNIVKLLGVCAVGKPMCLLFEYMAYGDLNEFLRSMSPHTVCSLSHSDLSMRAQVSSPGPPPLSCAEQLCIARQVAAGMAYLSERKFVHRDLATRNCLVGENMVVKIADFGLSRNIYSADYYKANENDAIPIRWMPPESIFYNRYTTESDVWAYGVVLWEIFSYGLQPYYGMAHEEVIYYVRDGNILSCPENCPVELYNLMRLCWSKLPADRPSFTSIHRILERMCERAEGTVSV
Phosphatidylinositol 4,5-bisphosphate 3-kinase catalytic subunit alpha isoform (Homo sapiens), P42336 [E542K], sequence (P42336 whole entry E542K, canonical isoform): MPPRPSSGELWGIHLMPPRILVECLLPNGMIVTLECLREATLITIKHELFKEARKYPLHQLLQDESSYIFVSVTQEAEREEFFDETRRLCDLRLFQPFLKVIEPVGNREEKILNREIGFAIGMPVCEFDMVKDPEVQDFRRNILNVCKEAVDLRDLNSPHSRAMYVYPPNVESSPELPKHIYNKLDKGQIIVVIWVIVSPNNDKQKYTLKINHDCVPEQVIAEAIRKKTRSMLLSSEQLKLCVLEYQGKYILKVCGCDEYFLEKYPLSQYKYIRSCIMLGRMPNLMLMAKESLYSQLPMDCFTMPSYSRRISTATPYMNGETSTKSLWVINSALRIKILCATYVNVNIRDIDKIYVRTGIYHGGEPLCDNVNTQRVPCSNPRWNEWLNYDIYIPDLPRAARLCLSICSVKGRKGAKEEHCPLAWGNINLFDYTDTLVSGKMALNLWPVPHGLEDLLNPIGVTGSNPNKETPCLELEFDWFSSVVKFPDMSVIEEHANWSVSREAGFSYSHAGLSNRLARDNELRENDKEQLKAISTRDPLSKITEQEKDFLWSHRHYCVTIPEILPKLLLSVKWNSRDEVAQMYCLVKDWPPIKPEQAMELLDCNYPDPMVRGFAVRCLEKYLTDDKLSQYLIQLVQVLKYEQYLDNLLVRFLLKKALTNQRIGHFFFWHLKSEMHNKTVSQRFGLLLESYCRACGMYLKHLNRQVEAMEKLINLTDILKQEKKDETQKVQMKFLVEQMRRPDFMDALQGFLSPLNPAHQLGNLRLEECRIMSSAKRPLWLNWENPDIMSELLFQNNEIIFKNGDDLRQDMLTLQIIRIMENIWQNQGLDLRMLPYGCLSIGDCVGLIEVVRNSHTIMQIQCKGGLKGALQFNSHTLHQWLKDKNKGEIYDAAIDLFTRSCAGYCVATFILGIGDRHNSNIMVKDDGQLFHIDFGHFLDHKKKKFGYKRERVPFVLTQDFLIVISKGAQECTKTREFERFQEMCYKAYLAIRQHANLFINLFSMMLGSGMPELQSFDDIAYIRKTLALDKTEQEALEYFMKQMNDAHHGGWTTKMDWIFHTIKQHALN
Serine/threonine-protein kinase RIO2 (Homo sapiens), sequence (Q9BVS4 whole entry, looked up): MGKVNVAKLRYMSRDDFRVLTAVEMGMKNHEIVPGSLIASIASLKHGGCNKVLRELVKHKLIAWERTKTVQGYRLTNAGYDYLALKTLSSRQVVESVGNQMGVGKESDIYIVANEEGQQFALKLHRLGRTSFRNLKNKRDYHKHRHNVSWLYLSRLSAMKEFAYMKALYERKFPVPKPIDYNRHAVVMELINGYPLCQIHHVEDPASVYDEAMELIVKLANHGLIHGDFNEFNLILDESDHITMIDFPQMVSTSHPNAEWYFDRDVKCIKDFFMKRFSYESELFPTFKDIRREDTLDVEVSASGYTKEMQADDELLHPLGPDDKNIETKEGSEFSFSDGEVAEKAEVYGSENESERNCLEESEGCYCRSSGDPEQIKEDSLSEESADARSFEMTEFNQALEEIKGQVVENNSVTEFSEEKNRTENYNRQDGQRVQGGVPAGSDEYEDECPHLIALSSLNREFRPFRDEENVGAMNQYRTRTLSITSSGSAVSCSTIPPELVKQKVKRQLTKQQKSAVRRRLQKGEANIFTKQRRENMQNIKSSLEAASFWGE
Glycogen synthase kinase-3 beta (Homo sapiens), sequence (P49841 whole entry, looked up): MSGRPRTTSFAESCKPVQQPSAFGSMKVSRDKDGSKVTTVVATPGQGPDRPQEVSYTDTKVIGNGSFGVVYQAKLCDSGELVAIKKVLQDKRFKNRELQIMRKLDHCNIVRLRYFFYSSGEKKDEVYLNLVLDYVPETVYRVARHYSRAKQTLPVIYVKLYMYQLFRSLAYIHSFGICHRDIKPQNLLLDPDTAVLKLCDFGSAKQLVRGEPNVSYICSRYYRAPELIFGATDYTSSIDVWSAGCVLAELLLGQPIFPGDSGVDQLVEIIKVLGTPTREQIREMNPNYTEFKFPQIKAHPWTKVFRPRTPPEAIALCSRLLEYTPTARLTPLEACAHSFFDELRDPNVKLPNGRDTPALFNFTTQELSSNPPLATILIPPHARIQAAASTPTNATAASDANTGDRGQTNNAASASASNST

Structure (SMILES)	residual activity [1] [%]	residual activity [2] [%]	residual activity [3] [%]	residual activity [4] [%]	inhibition [5] [%]	residual activity [6] [%]	residual activity [7] [%]	residual activity [8] [%]	residual activity [9] [%]	residual activity [10] [%]	residual activity [11] [%]	residual activity [12] [%]	residual activity [13] [%]	inhibition [14] [%]	residual activity [15] [%]	residual activity [16] [%]	residual activity [17] [%]	residual activity [18] [%]	residual activity [19] [%]	residual activity [20] [%]	further results
O=C(Nc1ccc(Oc2ccc(F)cc2)cc1)N1CCc2ncccc2[C@H]1c1ccc(F)cc1 [BAY-897]	100	76	100	82	68.4	92	91	95	95	98	100	100	100	7.16	95	98	85	91	73	94	residual activity [21]: 100%; residual activity [22]: 71%; residual activity [23]: 81%; residual activity [24]: 98%; residual activity [25]: 100%; residual activity [26]: 92%; residual activity [27]: 95%; residual activity [28]: 64%; residual activity [29]: 93%; residual activity [30]: 95%; residual activity [31]: 92%; residual activity [32]: 90%; residual activity [33]: 97%; inhibition [34]: 34%; residual activity [35]: 94%; residual activity [36]: 86%; residual activity [37]: 94%; residual activity [38]: 99%; residual activity [39]: 89%
O=C(Nc1cnc(Oc2ccc(F)cc2)nc1)N1CCc2ncccc2[C@@H]1c1ccc(F)cc1 [BAY-899]	77	83	100	71	18.3	100	84	89	100	93	100	91	100	9.77	93	84	84	93	89	96	residual activity [21]: 91%; residual activity [22]: 81%; residual activity [23]: 99%; residual activity [24]: 96%; residual activity [25]: 100%; residual activity [26]: 95%; residual activity [27]: 94%; residual activity [28]: 67%; residual activity [29]: 76%; residual activity [30]: 70%; residual activity [31]: 86%; residual activity [32]: 84%; residual activity [33]: 100%; inhibition [34]: 8.01%; residual activity [35]: 93%; residual activity [36]: 90%; residual activity [37]: 79%; residual activity [38]: 88%; residual activity [39]: 94%
